Laboratory results as given in ChEMBL document CHEMBL3526022, “Which metabolites circulate?” (Drug Metab Dispos, 2013).
Where a name gives a salt, the structure may show the parent alone.

Experiments:
Homo sapiens [1] = assay: Unbound hepatobiliary clearance in human treated with dilitiazem at 120 mg, po; format: ADME, organism-based; settings: in vivo
Homo sapiens [2] = species on record: Homo sapiens; assay: Unbound hepatobiliary clearance in human treated with darifenacin; format: ADME, organism-based; settings: in vivo
Homo sapiens [3] = species on record: Homo sapiens; assay: Unbound renal clearance in human treated with darifenacin; format: ADME, organism-based, Kidney; settings: in vivo
Homo sapiens [4] = species on record: Homo sapiens; assay: Unbound hepatobiliary clearance in human treated with propranolol; format: ADME, organism-based; settings: in vivo
Homo sapiens [5] = species on record: Homo sapiens; assay: Unbound renal clearance in human treated with propranolol; format: ADME, organism-based, Kidney; settings: in vivo
[6] = Fraction unbound in human treated with propranolol; format: ADME, organism-based; settings: in vivo
[7] = Systemic clearance in human treated with propranolol; format: ADME, organism-based; settings: in vivo
Homo sapiens [8] = assay: Unbound hepatobiliary clearance in healthy human treated with chlorpromazine at 10 mg, iv bolus dose and 25, 50 and 100 mg, po; format: ADME, organism-based; settings: in vivo
Homo sapiens [9] = assay: Unbound renal clearance in healthy human treated with chlorpromazine at 10 mg, iv bolus dose and 25, 50 and 100 mg, po; format: ADME, organism-based, Kidney; settings: in vivo
[10] = Systemic clearance in healthy human treated with chlorpromazine at 10 mg, iv bolus dose and 25, 50 and 100 mg, po; format: ADME, organism-based; settings: in vivo
[11] = Fraction unbound in healthy human treated with chlorpromazine at 10 mg, iv bolus dose and 25, 50 and 100 mg, po; format: ADME, organism-based; settings: in vivo
[12] = Clearance in iv dosed patient with renal impairment; format: ADME, organism-based; settings: human, in vivo
[13] = Fraction unbound in healthy human at 10 mg, iv bolus dose and 25, 50 and 100 mg, po; format: ADME, organism-based; settings: in vivo
Homo sapiens [14] = species on record: Homo sapiens; settings: in vivo
Homo sapiens [15] = species on record: Homo sapiens; settings: in vivo; remark: listed apart in the source
clinical [16] = settings: human, in vivo, iv
[17] = Fraction unbound in human; format: ADME, organism-based; settings: in vivo
Homo sapiens [18] = assay: Unbound hepatobiliary clearance in human at 120 mg, po; format: ADME, organism-based; settings: in vivo
[19] = Systemic clearance in human at 120 mg, po; format: ADME, organism-based; settings: in vivo
[20] = Fraction unbound in human at 120 mg, po; format: ADME, organism-based; settings: in vivo
clinical [21] = settings: human, in vivo, po
Homo sapiens [22] = species on record: Homo sapiens; assay: Unbound hepatobiliary clearance in psychiatric patient treated with clozapine; format: ADME, organism-based; settings: in vivo
Homo sapiens [23] = species on record: Homo sapiens; assay: Unbound renal clearance in psychiatric patient treated with clozapine; format: ADME, organism-based, Kidney; settings: in vivo
[24] = Systemic clearance in psychiatric patient treated with clozapine; format: ADME, organism-based; settings: human, in vivo
[25] = Fraction unbound in psychiatric patient treated with clozapine; format: ADME, organism-based; settings: human, in vivo
[26] = Systemic clearance in human; format: ADME, organism-based; settings: in vivo
Homo sapiens [27] = assay: Unbound hepatobiliary clearance in human at 4 mg, po twice daily for 8 days; format: ADME, organism-based; settings: in vivo, 192 h
Homo sapiens [28] = assay: Unbound renal clearance in human at 4 mg, po twice daily for 8 days; format: ADME, organism-based, Kidney; settings: in vivo, 192 h
[29] = Systemic clearance in human at 4 mg, po twice daily for 8 days; format: ADME, organism-based; settings: in vivo

Compound | pKa (physchem) | further results
CNCCN1C(=O)[C@H](OC(C)=O)[C@H](c2ccc(OC)cc2)Sc2ccccc21 |  | CL free (Homo sapiens [1]): 25 mL/min/kg
NC(=O)C(c1ccccc1)(c1ccccc1)[C@@H]1CCN(CCc2ccc3c(c2)C(O)CO3)C1 (stereo not given in full) |  | CL free (Homo sapiens [2]): 60 mL/min/kg; CL free (Homo sapiens [3]): 47 mL/min/kg
CCOc1cc([C@@H](CS(C)(=O)=O)N2C(=O)c3cccc(NC(C)=O)c3C2=O)ccc1OC | 9.8 | 
Cc1c(O)cccc1C(=O)N[C@@H](CSc1ccccc1)[C@H](O)CN1C[C@H]2CCCC[C@H]2C[C@H]1C(=O)NC(C)(C)C | 8.57 | 
CN1CC(=O)N2[C@H](c3ccc4c(c3)OCO4)c3[nH]c4ccccc4c3C[C@@H]2C1=O | 9.87 | 
COc1cccc(C2(O)CCCCC2CN(C)C)c1 (racemic) [TRAMADOL] | 10 | 
O[C@H](CNC[C@@H](O)[C@H]1CCc2cc(F)ccc2O1)[C@@H]1CCc2cc(F)ccc2O1 (relative stereo) | 14 | 
CC(C)NCC(O)COc1ccc(O)c2ccccc12 (stereo not given) [4-HYDROXYPROPRANOLOL SULFATE] |  | CL free (Homo sapiens [4]): 248 mL/min/kg; CL free (Homo sapiens [5]): 5 mL/min/kg; fraction unbound [6]: 0.26; clearance [7]: 66 mL/min/kg
CN(C)CCCN1c2ccc(O)cc2Sc2ccc(Cl)cc21 [7-HYDROXYCHLORPROMAZINE] |  | CL free (Homo sapiens [8]): 400 mL/min/kg; CL free (Homo sapiens [9]): 6 mL/min/kg; clearance [10]: 6.1 mL/min/kg; fraction unbound [11]: 0.015
Clc1ccc2c(c1)C(N1CCNCC1)=Nc1ccccc1O2 [AMOXAPINE] | 11.2 | 
COc1ccc(-n2nc(C(N)=O)c3c2C(=O)N(c2ccc(N4CCCCC4=O)cc2)CC3)cc1 [APIXABAN] | 8.56 | 
COc1ccc(CCN2CCC(Nc3nc4ccccc4n3Cc3ccc(F)cc3)CC2)cc1 [ASTEMIZOLE] | 10.1 | 
CNCC[C@@H](Oc1ccccc1C)c1ccccc1 [ATOMOXETINE] | 10.3 | 
COc1ccccc1Oc1c(NS(=O)(=O)c2ccc(C(C)(C)C)cc2)nc(-c2ncccn2)nc1OCCO [BOSENTAN] | 8.36 | 
CN(Cc1cc(Br)cc(Br)c1N)C1CCCCC1 [BROMHEXINE] | 15.1 | 
CCc1cccc2cc(C(O)CNC(C)(C)C)oc12 (stereo not given) [BUFURALOL] | 14.3 | 
CC(NC(C)(C)C)C(=O)c1cccc(Cl)c1 (stereo not given) [BUPROPION] | 15.4 | 
O=C1CC2(CCCC2)CC(=O)N1CCCCN1CCN(c2ncccn2)CC1 [BUSPIRONE] | 12.5 | clearance [12]: 28 mL/min/kg
Cc1ccc(-c2cc(C(F)(F)F)nn2-c2ccc(S(N)(=O)=O)cc2)cc1 [CELECOXIB] | 14.2 | 
COCc1c(C(C)C)nc(C(C)C)c(/C=C/[C@@H](O)C[C@@H](O)CC(=O)O)c1-c1ccc(F)cc1 [CERIVASTATIN] | 14.4 | 
CN(C)CCCN1c2ccccc2Sc2ccc(Cl)cc21 [CHLORPROMAZINE] |  | Fu [13]: 0.0013; CL free (Homo sapiens [14]): 14000 mL/min/kg; CL free (Homo sapiens [15]): 1 mL/min/kg; clearance (clinical [16]): 18.3 mL/min/kg

Compound | pKa (physchem) | further results
COc1ccc2c3c1O[C@H]1[C@@H](O)C=C[C@H]4[C@@H](C2)N(C)CC[C@@]341 [CODEINE] | 9.48 | 
NC(=O)C(c1ccccc1)(c1ccccc1)[C@@H]1CCN(CCc2ccc3c(c2)CCO3)C1 [DARIFENACIN] | 13.5 | fraction unbound [17]: 0.02
Clc1ccc2c(c1)CCc1cccnc1C2=C1CCNCC1 [DESLORATADINE] | 9.27 | 
COc1ccc2c(c1)[C@]13CCCC[C@@H]1[C@H](C2)N(C)CC3 [DEXTROMETHORPHAN] | 10.1 | 
COc1ccc([C@@H]2Sc3ccccc3N(CCN(C)C)C(=O)[C@@H]2OC(C)=O)cc1 [DILTIAZEM] |  | CL free (Homo sapiens [18]): 48 mL/min/kg; CL/F [19]: 12 mL/min/kg; fraction unbound [20]: 0.25
O=C(O[C@@H]1C[C@@H]2C[C@H]3C[C@H](C1)N2CC3=O)c1c[nH]c2ccccc12 [DOLASETRON] | 14.6 | 
CNCC[C@H](Oc1cccc2ccccc12)c1cccs1 [DULOXETINE] | 9.97 | 
O=C1Nc2ccc(Cl)cc2[C@@](C#CC2CC2)(C(F)(F)F)O1 [EFAVIRENZ] | 7.18 | 
CN1CCN(c2ccccc2/C=C2\SCCN(c3ccc(Cl)c(Cl)c3)C2=O)CC1 [ELZASONAN] | 11.5 | 
COc1ccc(C(=O)Nc2ccccc2CCC2CCCCN2C)cc1 (stereo not given) [ENCAINIDE] | 8.34 | 
C#Cc1cccc(Nc2ncnc3cc(OCCOC)c(OCCOC)cc23)c1 [ERLOTINIB] | 13.9 | 
O=C(NCC1CCCCN1)c1cc(OCC(F)(F)F)ccc1OCC(F)(F)F (stereo not given) [FLECAINIDE] | 9.28 | 
CC(C)C(=O)Nc1ccc([N+](=O)[O-])c(C(F)(F)F)c1 [FLUTAMIDE] | 12.9 | CL/F (clinical [21]): > 600 mL/min/kg
CN1C2CCCC1CC(NC(=O)c1nn(C)c3ccccc13)C2 (stereo not given) [GRANISETRON] | 8.9 | 
CCc1cc2c(cc1CC)CC(NC[C@H](O)c1ccc(O)c3[nH]c(=O)ccc13)C2 [INDACATEROL] | 14.6 | 
CCC(C)n1ncn(-c2ccc(N3CCN(c4ccc(OCC5COC(Cn6cncn6)(c6ccc(Cl)cc6Cl)O5)cc4)CC3)cc2)c1=O (stereo not given) [ITRACONAZOLE] | 15 | 
O=C(c1ccc(F)cc1)C1CCN(CCn2c(=O)[nH]c3ccccc3c2=O)CC1 [KETANSERIN] | 14.1 | 
Cc1c(OCC(F)(F)F)ccnc1C[S+]([O-])c1nc2ccccc2[nH]1 (stereo not given) [LANSOPRAZOLE] | 11.2 | 
Cc1ncc2n1-c1ccc(Cl)cc1C(c1ccccc1F)=NC2 [MIDAZOLAM] | 13.6 | 
CC(C)(O)c1ccccc1CC[C@@H](SCC1(CC(=O)O)CC1)c1cccc(/C=C/c2ccc3ccc(Cl)cc3n2)c1 [MONTELUKAST] | 15.9 | 
Clc1ccc2c(c1)N=C(N1CCNCC1)c1ccccc1N2 [N-DESMETHYLCLOZAPINE] |  | CL free (Homo sapiens [22]): 1.2 mL/min/kg; CL free (Homo sapiens [23]): 5 mL/min/kg; clearance [24]: 0.6 mL/min/kg; fraction unbound [25]: 0.097

Compound | pKa (physchem) | further results
CCn1cc(C(=O)O)c(=O)c2ccc(C)nc21 [NALIDIXIC ACID] | 13 | 
CCc1nn(CCCN2CCN(c3cccc(Cl)c3)CC2)c(=O)n1CCOc1ccccc1 [NEFAZODONE] | 13.8 | 
CNCCC=C1c2ccccc2CCc2ccccc21 [NORTRIPTYLINE] | 13.9 | 
COc1ccc2[nH]c([S+]([O-])Cc3ncc(C)c(OC)c3C)nc2c1 (stereo not given) [OMEPRAZOLE] | 13.2 | 
CC(C)CCC(=O)CC1c2ccccc2C(=O)N1c1ccc2ccc(Cl)nc2n1 (stereo not given) [PAGOCLONE] | 15 | 
COc1ccnc(C[S+]([O-])c2nc3ccc(OC(F)F)cc3[nH]2)c1OC (stereo not given) [PANTOPRAZOLE] | 7.69 | 
Fc1ccc([C@@H]2CCNC[C@H]2COc2ccc3c(c2)OCO3)cc1 [PAROXETINE] | 10.3 | 
CCc1ccc(CCOc2ccc(CC3SC(=O)NC3=O)cc2)nc1 (stereo not given) [PIOGLITAZONE] | 13.7 | 
O=C(C1CCCCC1)N1CC(=O)N2CCc3ccccc3C2C1 (stereo not given) [PRAZIQUANTEL] | 15 | 
CC(C)NCC(O)COc1cccc2ccccc12 (stereo not given) [PROPRANOLOL] |  | clearance [26]: 20 mL/min/kg; fraction unbound [17]: 0.15
OCCOCCN1CCN(C2=Nc3ccccc3Sc3ccccc32)CC1 [QUETIAPINE] | 11.2 | 
COc1ccccc1OCC(O)CN1CCN(CC(=O)Nc2c(C)cccc2C)CC1 (stereo not given) [RANOLAZINE] | 9.59 | 
CCOc1cc(CC(=O)N[C@@H](CC(C)C)c2ccccc2N2CCCCC2)ccc1C(=O)O [REPAGLINIDE] | 14.8 | 
CN(CCOc1ccc(CC2SC(=O)NC2=O)cc1)c1ccccn1 (stereo not given) [ROSIGLITAZONE] | 10.3 | 
N#CC[C@H](C1CCCC1)n1cc(-c2ncnc3[nH]ccc23)cn1 [RUXOLITINIB] | 14.9 | 
C[C@H](NC(=O)C(C)(C)Oc1ccc(C(F)(F)F)cn1)[C@@H](Cc1ccc(Cl)cc1)c1cccc(C#N)c1 [TARANABANT] | 15.1 | 
CC(C)(C)c1ccc(C(O)CCCN2CCC(C(O)(c3ccccc3)c3ccccc3)CC2)cc1 (stereo not given) [TERFENADINE] | 15 | 
C#C[C@]1(O)CC[C@H]2[C@@H]3[C@H](C)CC4=C(CCC(=O)C4)[C@H]3CC[C@@]21C [TIBOLONE] | 15 | 
CCCSc1nc(N[C@@H]2C[C@H]2c2ccc(F)c(F)c2)c2nnn([C@@H]3C[C@H](OCCO)[C@@H](O)[C@H]3O)c2n1 [TICAGRELOR] | 14.3 | 
Cc1ccc(O)c([C@H](CCN(C(C)C)C(C)C)c2ccccc2)c1 [TOLTERODINE] | 14.7 | CL free (Homo sapiens [27]): 1190 mL/min/kg; CL free (Homo sapiens [28]): 1 mL/min/kg; CL/F [29]: 44 mL/min/kg
Cc1onc(-c2ccccc2)c1-c1ccc(S(N)(=O)=O)cc1 [VALDECOXIB] | 13.1 | 
